Consider one compound from publication PMC7332124, “Design, One Pot Synthesis and Molecular Docking Studies of Substituted-1H-Pyrido[2,1-b] Quinazolines as Apoptosis-Inducing Anticancer Agents” (Asian Pacific Journal of Cancer Prevention : APJCP, 2020).

Structures are written as SMILES. “Also recorded” adds a separate entry of the source.

One data set relates to A549. The experiment in a line: Cell growth inhibition assay (MTT, day 0 subtracted). Particulars: Homo sapiens, 72 h, read-out: In vitro Growth Inhibitory Concentration (GI50). The class given is cell-based, human. The protocol: (§1) Various cancer cells were used to screen anticancer activity of newly synthesized compounds. Lung (A549 and NCI-H460), colon (HCT-15 and HT-29), prostate (DU-145) cancer cells maintained in RPMI-1640 media while normal lung fibroblasts cell line (HFL-1) were maintained in F-12 k medium supplemented with 10% fetal bovine serum (FBS) with 1% antibiotic-antimycotic solution (Sigma). Cells were maintained in 5% CO2 with 98% relative humidity at 37 °C in incubator. When 80-90% of confluency is reached, they were sub-cultured using 0.25% trypsin/1 mM EDTA solution for further passage. The compounds in this series were dissolved in DMSO (1 %) to prepare the stock solution of 10 mM. Further dilutions were made accordingly with respective media to obtain the required concentrations.
(§2) Briefly, the cells were seeded on to a 96-well plate in 100 µl of medium. Following 24 h MTT reagent was added in few wells and day 0 absorbance was analyzed, and then cells were treated with compounds and incubated for an additional 72 h. After the treatment, 100 µl of MTT (0.5 mg/ml) was added and incubated at 37 °C for 4 h. Then MTT reagent was suctioned, the insoluble formazan crystals were dissolved in DMSO and formazan product formed is measured at 570 nm wavelength. The day 0 absorbance was subtracted from the 72 h incubated plates and data were plotted as a percentage of untreated control (Dai et al., 2011).

The next data set relates to DU-145. The description is as above. The class given is cell-based, human. As to conditions: Homo sapiens, 72 h, read-out: In vitro Growth Inhibitory Concentration (GI50). The protocol:
as §1, §2

In the next data set the test system is HCT-15. The description is as above. The class given is cell-based, human. Particulars: Homo sapiens, 72 h, read-out: In vitro Growth Inhibitory Concentration (GI50). The protocol:
as §1, §2

Data set [1] deals with HFL-1 normal lung fibroblasts. The data set is described as above. The class given is cell-based, human. As to conditions: Homo sapiens, HFL1, 72 h, read-out: In vitro Growth Inhibitory Concentration (GI50). The protocol: as §1, §2
Another data set concerns HT-29. The data set is described as above. The class given is cell-based, human. Particulars: Homo sapiens, 72 h, read-out: In vitro Growth Inhibitory Concentration (GI50). The protocol: as §1, §2
The next data set deals with NCI-H460. Described as above. Particulars: Homo sapiens, 72 h, read-out: In vitro Growth Inhibitory Concentration (GI50). The class given is cell-based, human. The method, then:
as §1, §2

In data set [2] the test system is A549 cells. Nature of the data set: Acridine orange/ethidium bromide (AO/EB) staining. The class given is cell-based, human. As to conditions: 0.5, 1, 2.5 and 5 µM, 72 h. The protocol: A549 cells were seeded at a concentration of 1.2x10^5 cells/ml and treated with various concentrations of compound 4q and the plates were incubated for 72 h. Then, 100 µl from fluorescent dyes comprising both Acridine Orange (Helfrich et al., 2016) and Ethidium Bromide (Vundru et al., 2013) were added into each well in equal volumes (10 µg/ml) respectively (Nekkanti et al., 2017), then the cells were Immediately visualized under fluorescence microscope with excitation (488 nm) and emission (550 nm) at 200X magnification.

The subject of data set [3] is A549 cells. The experiment in a line: DAPI nuclear staining. The class given is cell-based, human. As to conditions: 0.5, 1, 2.5 and 5 µM, 72 h. The protocol:
After treatment with compound 4q for 72 h, lung cancer cell line A549 were washed with PBS then fixed with 4% formaldehyde for 10 min and then permeabilized with 0.1% Tween 20 followed by staining with 1 µM DAPI. Control and treated cells were observed under fluorescence microscope with excitation at 359 nm and emission at 461 nm using DAPI filter at 200X magnification (Sgorbati et al., 1986).

The test system of data set [4] is A549 cells. Nature of the data set: Clonogenic growth inhibition assay. The class given is cell-based, human. Particulars: 1, 2.5 and 5 µM, 7 days. The method, then: The assay mainly tests ability to undergo “unlimited” division by every cell in the population and the hindrance of colony formation by compound 4i was determined in exponentially growing A549 cells by culturing 100-150 cells per well. […] Then, formed colonies were fixed with glutaraldehyde (6.0% v/v), stained with crystal violet (0.5% w/v). The treatment clearly […] the capacity to produce colonies in lung cancer cell population in a concentration dependent manner. […] The total colonies were counted by molecular imaging system Vilber Fusion Fx software and the values were represented as a percent colony forming ability.
Lung cancer cells A549 at exponentially phase were seeded into 12-well culture plates and kept overnight and treated with the compound 4q. Every 2 days the medium was replaced with the fresh medium. After 7 days of incubation, the colonies formed were fixed and stained with 1 % crystal violet in methanol for 3 h. The number of stained colonies were counted under chemdoc imaging system (Vilber Fusion Fx, France). Colony formation was calculated as a percentage to untreated control cultures (Moghaddam et al., 2009).

Data set [5] relates to A549 cells. The experiment in a line: Mitochondrial membrane potential (JC-1, flow cytometry). Particulars: 0.5-5 µM, 72 h. The class given is cell-based, human. The method, then:
The cyanine dye JC-1 (5,5′,6,6′-tetrachloro-1,1′,3,3′-tetraethylbenzimidazolylcarbocyanine iodide) is a cell-penetrating dye that facilitates discrimination of energized and de energized mitochondria thus, high mitochondrial potential shifts its emission fluorescence from green to red (Vundru et al., 2013).This phenomenon was assessed by flow cytometry (FACS). A549 cells (1.5x10^6 cells/ml) were seeded in 12 well plates and allowed to adhere for overnight. Then the cells were incubated with compound 4q at 0.5, 1, 2.5 and 5 µM concentrations for 72 h. Cells were collected and washed with PBS and resuspended in solution of JC- 1 (1 µM) and incubated for 30 min in incubator at 37 °C. The cells were washed twice with PBS and cells were trypsinized, centrifuged and 10,000 events were analyzed by flow cytometer (BD FACSVerse™, USA).
A general note: In flow cytometry, cells or beads pass a laser one at a time.

Data set [6] deals with A549 cells. The experiment in a line: Annexin V-FITC/PI apoptosis assay (flow cytometry). The class given is cell-based, human. Particulars: 72 h. The source says: A fundamental part of apoptosis is the flipping of phosphatidyl serine (PS) from the inner surface to the outer surface of the plasma layer of the cells. PS is a component of phospholipid usually located on the cytoplasmic surface of the cell layer in viable cells. When the apoptotic condition is initiated in a cell, PS is no more restricted to the cytosolic region and will flip on the surface of the cell. Translocation of PS is considered to be a hall mark of apoptosis (Zhu et al., 2015). To experimentally address this phenomenon briefly, 1 X 10^5 cells were seeded in a 12-well plate and treated with different concentration of compound 4q and incubated for 72 h. Then untreated and treated cells were harvested and the cells were processed with annexin V-FITC and Propidium Iodide (PI) staining (Bio Legend), according to the manufacturer’s instructions. Further, early/late apoptosis and necrosis parameters were analyzed with quadrant statistics on propidium iodide-negative cells, fluorescein positive cells and propidium iodide-positive cells, respectively.

The melting point is the temperature of the solid-liquid transition. The compound `C1=CC2=NC3=C(CCCC3)C(c3cn(Cc4ccccc4)c4ccccc34)N2C=C1` (stereo not shown) [Compound 4i, 11-(1-benzyl-1H-indol-3-yl)-2,3,4, 11-tetrahydro-1H-pyrido [2,1-b] quinazoline] displayed a melting point of 185 to 186 °C. Further, the GI50 with A549 turned out to be 2.7 ± 0.18 µM. In the data set with DU-145, the GI50 was found to be 9.64 ± 0.37 µM. In addition, the GI50 in the data set on HCT-15 amounted to 6.27 ± 0.19 µM. The GI50 in [1] was determined as 4.54 ± 0.59 µM. For the same compound, the GI50 in the data set on HT-29 came to 5.98 ± 0.18 µM. For the same compound, in the data set with NCI-H460, the GI50 amounted to 3.24 ± 0.4 µM. Moreover, in the data set on A549 cells [2], the “apoptotic morphology by AO/EB staining” value was “induced apoptosis in A549 lung cancer cells”. In addition, the “nuclear changes by DAPI staining” value with A549 cells [3] is “chromatin condensation, nuclear fragmentation, and horse shoe shaped nucleus”. In addition, in the data set with A549 cells [4], the colony formation result is on record as “Reductions in the number of colonies; also recorded: strong anti-clonogenic effect”. Besides, the “mitochondrial membrane potential (ΔΨm)” value in the data set on A549 cells [5] is given as “significant collapse in the ΔΨm”. Further, in the data set with A549 cells [6] (5 µM, control 4.08 %), the “percentage of early apoptotic cells (EA; AV+/PI-)” value worked out at 26.90%. Moreover, in the data set on A549 cells [6] (0.5 to 5 µM), the “apoptosis induction (Annexin V-FITC/PI)” value is recorded as “significant early apoptosis”.
